The text below walks through data of PubChem BioAssay AID686941 (The Scripps Research Institute Molecular Screening Center, 2013).

Each structure is given as a SMILES string. pIC50: −log10 of the molar value.

Assay [1] has as its target Cytochrome P450 3A4 (Homo sapiens) (UniProt P08684). The experiment in a line: recombinant CYP3A isoform inhibitors – biochemical, LC-MS/MS, purified recombinant enzymes, counter-screen, late-stage follow-up (AID 686941). The conditions noted are these: recombinant CYP3A4/CYP3A5, LC-MS/MS metabolite formation; CYP3A4. On the technique in general: The purpose of a counterscreen is to sort out artefacts and off-target activity.

Assay [2] deals with Cytochrome P450 3A5 (Homo sapiens) (UniProt P20815). The assay is described as above. The conditions noted are these: recombinant CYP3A4/CYP3A5, LC-MS/MS metabolite formation, CYP3A5.
Cytochrome P450 3A5 (Homo sapiens), sequence (P20815 whole entry, looked up): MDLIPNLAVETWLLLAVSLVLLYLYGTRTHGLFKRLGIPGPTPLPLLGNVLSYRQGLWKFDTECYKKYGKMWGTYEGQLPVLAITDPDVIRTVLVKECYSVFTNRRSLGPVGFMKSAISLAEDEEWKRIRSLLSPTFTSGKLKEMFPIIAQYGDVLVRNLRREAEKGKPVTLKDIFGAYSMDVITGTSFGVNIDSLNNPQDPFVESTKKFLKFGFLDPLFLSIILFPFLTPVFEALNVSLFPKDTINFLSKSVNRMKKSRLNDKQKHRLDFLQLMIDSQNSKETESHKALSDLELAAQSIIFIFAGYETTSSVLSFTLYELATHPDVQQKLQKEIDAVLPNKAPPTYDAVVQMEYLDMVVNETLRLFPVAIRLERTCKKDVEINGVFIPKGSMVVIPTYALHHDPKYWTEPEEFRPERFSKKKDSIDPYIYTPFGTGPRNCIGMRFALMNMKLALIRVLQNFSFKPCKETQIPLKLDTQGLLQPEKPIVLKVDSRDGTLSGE

Cytochrome P450 3A4 (Homo sapiens), sequence (P08684 whole entry, looked up, canonical isoform): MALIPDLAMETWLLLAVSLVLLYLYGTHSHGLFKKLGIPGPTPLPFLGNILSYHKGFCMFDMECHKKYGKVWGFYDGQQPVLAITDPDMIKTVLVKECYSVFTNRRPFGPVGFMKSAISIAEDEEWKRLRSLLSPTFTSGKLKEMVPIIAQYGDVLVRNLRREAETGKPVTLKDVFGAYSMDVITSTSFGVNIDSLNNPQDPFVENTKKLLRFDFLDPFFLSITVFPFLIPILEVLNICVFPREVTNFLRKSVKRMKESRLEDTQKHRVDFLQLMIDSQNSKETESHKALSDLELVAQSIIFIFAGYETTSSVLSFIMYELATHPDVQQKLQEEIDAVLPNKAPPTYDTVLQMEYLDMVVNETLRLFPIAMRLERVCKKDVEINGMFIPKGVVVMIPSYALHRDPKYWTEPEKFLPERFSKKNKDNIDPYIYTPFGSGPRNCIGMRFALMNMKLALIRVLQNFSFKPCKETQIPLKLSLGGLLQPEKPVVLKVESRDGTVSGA

Usually pIC50 stands for the negative decadic logarithm of the IC50, by convention in mol/L. The term inhibition denotes the change of the read-out against control, counted positive when it falls. As for `NC(=O)c1ccc(-c2ccc(NC(=O)Nc3ccc(-c4ccnc5nc[nH]c45)cc3)cc2)cc1`, the pIC50 in assay [1] was below 6.70. Besides, in assay [2] (at 60 µM, stronger effect = higher value), the inhibition came out at 26%.
With `O=C(Nc1ccc(-c2ccc3ccccc3c2)cc1)Nc1ccc(-c2ccnc3nc[nH]c23)cc1`, the results for the pIC50 in assay [1] and in assay [2] were 5.77 and 4.89, respectively.
